One series has as its system S. aureus (AD3). In words: MIC and MBC, broth dilution, S. aureus AD3. It is filed as cell-based. The following applies: Staphylococcus aureus; S. aureus AD3 (clinical strain). How it is done: (§1) The synthesized pleuromutilin derivatives 8–30 were tested against four Gram-positive bacteria (MRSA ATCC 43300, S. aureus ATCC 29213 and two clinical strains of S. aureus (AD3 and 144) isolated from Guangdong Province). Tiamulin was used as the positive control in this experiment.
(§2) MIC values were tested following our previous work. The derivatives were dissolved in an aqueous solution of 2.5% tween-80 and 2.5% DMSO to make a solution with a concentration of 1000 µg/mL. The solution was diluted 12 times with MH broth to give a concentration range of 32–0.01 µg/mL. The bacteria (5 × 10^5 CFU/mL) were added in each well. For each compound concentration, three parallel experiments were set. The 96-well plate was incubated for 22–26 h at 37 °C. The MIC value was recorded as the minimal concentration that inhibits the visible growth of tested bacteria completely.
(§3) The MBC of these pleuromutilin derivatives were tested according to a previously reference. […] Then, the values of MBC were determined by laying 100 μL aliquots from the wells onto the MH agar plates without visible growth. The MH agar plate was cultured for a further 22–26 h at 37 °C.
On the technique in general: Broth dilution looks for growth in wells or tubes with falling amounts of substance.

For a further series, the system named is S. aureus (144). Nature of the series: MIC and MBC, broth dilution, S. aureus 144. It is filed as cell-based. The settings on record: Staphylococcus aureus; S. aureus 144 (clinical strain). How it is done:
as §1, §2, §3

Series [1] deals with methicillin-resistant S. aureus (ATCC 43300). In words: MIC and MBC, broth dilution, MRSA ATCC 43300. It is filed as cell-based. The following applies: Staphylococcus aureus. How it is done:
as §1, §2, §3

In the next series the test system is S. aureus (ATCC 29213). Nature of the series: MIC and MBC, broth dilution, S. aureus ATCC 29213. It is filed as cell-based. The settings on record: Staphylococcus aureus, ATCC29213. How it is done:
as §1, §2, §3

The next series concerns 50S ribosome. In words: SPR interaction and affinity analysis. The following applies: 4 °C; for Avg ka / Avg kd: 1:1 Langmuir binding; for Kd: KD = Kd/Ka. It is filed as binding, S. aureus ATCC 43300. How it is done:
S. aureus ATCC 43300 was used to prepare the 50S ribosomal subunit the same way as described previously. Cells were grown overnight in Brain Heart Infusion broth at 37 °C and harvested for 1.5 h at an OD600. Cells were washed with 10 mM Tris-HCl twice at pH = 7.5, and resuspended in 5 mL buffer A (20 mM HEPES-HCl pH = 7.5, 21 mM Mg(OAc)2, 100 mM NH4Cl, 1 mM DTT, 1 mM EDTA). Cells were broken by an ultrasound crusher. The lysate was centrifuged for 90 min at 20,000× g to clear cell debris.
The solution was layered on a sucrose cushion of 15 mL (10 mM Hepes-KOH pH 7.5, 25 mM Mg(OAc)2, 500 mM KCl, […], 1 mM DTT, 0.5 mM EDTA). Centrifugation was carried out for 15 h at 45,000 rpm using an ultracentrifuge Beckman (Beckman Coulter, Shanghai, China), Type 70Ti rotor. The crude ribosome pellet was resuspended in buffer E (10 mM Hepes-KOH pH 7.5, 10 mM Mg(OAc)2, 100 mM KCl, 1 mM DTT, 0.5 mM EDTA), then layered on 9 mL of 7–30% sucrose gradient and centrifuged in an ultracentrifuge Beckman, type SW40Ti rotor at 17,100 rpm for 15 h. The gradient was analyzed on the AKTA explorer system (Amersham, UK). The fractions corresponding to the 50S ribosomal subunit were collected and further subjected to precipitation by PEG 20,000. The 50S ribosomal subunit pellet was gently dissolved in 200 µL of storage buffer (10 mM HEPES-HCl pH = 7.5, 10 mM Mg(OAc)2, 15 mM KCl, 60 mM NH4Cl, 1 mM DTT) and stored at −80 °C.
SPR affinity analysis was performed on the bScreen LB 991 Label-free Microarray System (Berthold Technologies, Black Forest, Germany) at 4 °C and Biodot AD-1520 Array Printer (BIODOT Inc., Irvine, CA, USA) with a Photo-cross-linker SensorCHIP™. Concentrations of each compound were diluted to 100 μM with DMSO as the printing working solution for immobilization. A Biodot AD-1520 Array Printer (BIODOT Inc., CA, USA) was used to control the photo-cross-linker sensor chip and print samples. Each sample was printed four times. In order to check the chip quality and check whether the detection system works, DMSO was used as a system-negative control and rapamycin as a positive control. All positive control dots were divided into four groups and printed on the four corners of the sensor chip. The sensor chip was dried in vacuum after the array print and quickly transferred to a spectra radiator for a photo cross-linking reaction. The sensor chip was washed with C2H5OH, DMF and H2O in turn and evaporated in a N2 atmosphere for 15 min. Then, the Flowcell Cover were assembled.
The 50S ribosome was diluted separately to 200 nM, 400 nM, 800 nM, 1600 nM and 3200 nM with PBST (pH = 7.4, 0.1% Tween 20). Different concentrations of ribosome solutions were injected at a flow rate of 0.5 μL⋅s^−1 for 600 s at the associating stage at 4 °C, followed by PBST at a flow rate of 0.5⋅μL·s^−1 for 360 s at each dissociating stage. Then, the surface was regenerated with Glycine-HCl (pH = 2.0) at a flow rate of 2⋅μL·s^−1 for 300 s.
The raw data of the binding process of compounds and the 50S ribosome were recorded in real time. We compared the response unit (RU) of surface resonance to determine the different binding affinity between each sample dot. The process and analysis of association rate constants (Ka) and dissociation rate constants (Kd) and the equilibrium dissociation constant (KD, Kd/Ka) were performed using the data analysis software of the bScreen LB 991 Label-free Microarray System according to a single-site binding model (1:1 Langmuir binding) with mass transfer limitations for binding kinetics determination.

Converted amounts (≈) assume the structure as drawn.

In general, MBC refers to the smallest concentration meeting the test's criterion for killing. As a reminder, the MIC is the lowest concentration found to suppress growth. Lower therefore signals inhibition by little substance. By melting point is commonly meant the temperature, or range, at which the solid turns liquid. By Kd is commonly meant the free concentration of one partner at which half of the binding sites on the other are occupied at equilibrium, for simple one-to-one binding. A high value points to lower affinity.

`C=C[C@]1(C)C[C@@H](OC(=O)CNCCCC)[C@]2(C)[C@H](C)CC[C@]3(CCC(=O)[C@H]32)[C@@H](C)[C@@H]1O` [Compound 21, 22-Butylamineyl-22-deoxypleuromutilin] came in with a melting point of 74 to 75 °C. Further, in the series with S. aureus (AD3), the MBC turned out to be 8 µg/mL (≈ 18.4 µM) and the MIC was determined as 4 µg/mL (≈ 9.22 µM). In the series on S. aureus (144), the minimal bactericidal concentration (MBC) worked out at 8 µg/mL (≈ 18.4 µM) and the MIC was found to be 8 µg/mL (≈ 18.4 µM). Besides, in series [1], the MBC stood at 4 µg/mL (≈ 9.22 µM) and it took 2 µg/mL (≈ 4.61 µM) to inhibit growth (MIC). In the series on S. aureus (ATCC 29213), this compound showed an MBC of 4 µg/mL (≈ 9.22 µM) and a minimal inhibitory concentration (MIC) of 4 µg/mL (≈ 9.22 µM). In the series on 50S ribosome, this compound yielded an Avg ka of 4.24 M⁻¹ s⁻¹, an Avg kd of 0.0231 s⁻¹ and a Kd of 5.44 mM.

`C=C[C@]1(C)C[C@@H](OC(=O)CNCc2ccc(F)cc2)[C@]2(C)[C@H](C)CC[C@]3(CCC(=O)[C@H]32)[C@@H](C)[C@@H]1O` [Compound 16, 22-(4-Fluorobenzylamineyl)-22-deoxypleuromutilin] showed a melting point of 76 to 77 °C. Also, in the series with S. aureus (AD3), the MBC stood at 16 µg/mL (≈ 32.9 µM) and 8 µg/mL (≈ 16.5 µM) was the least that counted as inhibitory (MIC). Also, in the series on S. aureus (144), the MBC turned out to be 32 µg/mL (≈ 65.9 µM) and the MIC was 16 µg/mL (≈ 32.9 µM). For the same compound, in series [1], the minimal bactericidal concentration (MBC) came to 8 µg/mL (≈ 16.5 µM) and the MIC was found to be 4 µg/mL (≈ 8.24 µM). Moreover, in the series on S. aureus (ATCC 29213), the MBC worked out at 32 µg/mL (≈ 65.9 µM) and it took 16 µg/mL (≈ 32.9 µM) to inhibit growth (MIC). In the series on 50S ribosome, this compound had an Avg ka of 2.04 M⁻¹ s⁻¹, an Avg kd of 0.00929 s⁻¹ and a Kd of 4.56 mM.

`C=C[C@]1(C)C[C@@H](OC(=O)CNc2ccc(Br)cc2)[C@]2(C)[C@H](C)CC[C@]3(CCC(=O)[C@H]32)[C@@H](C)[C@@H]1O` [Compound 13, 22-(4-Bromoanilineyl)-22-deoxypleuromutilin] displayed a melting point of 97 to 98 °C. For the same compound, in the series with S. aureus (AD3), the MBC stood at 1 µg/mL (≈ 1.88 µM) and 0.25 µg/mL (≈ 0.469 µM) was the least that counted as inhibitory (MIC). In the series with S. aureus (144), this compound had an MBC of 1 µg/mL (≈ 1.88 µM) and an MIC of 0.5 µg/mL (≈ 0.939 µM). In series [1], this compound came in with an MBC of 0.12 µg/mL (≈ 0.225 µM) and a minimum inhibitory concentration (MIC) of 0.12 µg/mL (≈ 0.225 µM). In the series with S. aureus (ATCC 29213), the MBC was 0.25 µg/mL (≈ 0.469 µM) and the MIC was determined as 0.25 µg/mL (≈ 0.469 µM). In the series with 50S ribosome, this compound gave an Avg kd of 0.197 s⁻¹ and a Kd of 6.35 mM.

For `C=C[C@]1(C)C[C@@H](OC(=O)CNCCc2cccs2)[C@]2(C)[C@H](C)CC[C@]3(CCC(=O)[C@H]32)[C@@H](C)[C@@H]1O` [Compound 20, 22-(Thiophene-2-ethylamineyl)-22-deoxypleuromutilin], the melting point was in the range of 69 to 70 °C. For the same compound, in the series with S. aureus (AD3), the MBC amounted to 16 µg/mL (≈ 32.8 µM) and it took 4 µg/mL (≈ 8.2 µM) to inhibit growth (MIC). In the series on S. aureus (144), this compound displayed an MBC of 4 µg/mL (≈ 8.2 µM) and an MIC of 2 µg/mL (≈ 4.1 µM). Besides, in series [1], the MBC was 1 µg/mL (≈ 2.05 µM) and the MIC was 0.5 µg/mL (≈ 1.03 µM). In the series on S. aureus (ATCC 29213), this compound gave an MBC of 2 µg/mL (≈ 4.1 µM) and an MIC of 2 µg/mL (≈ 4.1 µM). In the series with 50S ribosome, the Avg ka turned out to be 624 M⁻¹ s⁻¹, the Avg kd was 0.0197 s⁻¹ and binding was put at a Kd of 0.0316 mM.

Compound `C=C[C@]1(C)C[C@@H](OC(=O)CNc2cccc(Cl)c2)[C@]2(C)[C@H](C)CC[C@]3(CCC(=O)[C@H]32)[C@@H](C)[C@@H]1O` [Compound 10, 22-(3-Chloroanilineyl)-22-deoxypleuromutilin] displayed a melting point of 158 to 160 °C. Moreover, in the series with S. aureus (AD3), the MBC worked out at 0.5 µg/mL (≈ 1.02 µM) and the MIC came to 0.125 µg/mL (≈ 0.256 µM). In the series on S. aureus (144), this compound had an MBC of 0.5 µg/mL (≈ 1.02 µM) and an MIC of 0.25 µg/mL (≈ 0.512 µM). In series [1], this compound yielded an MBC of 0.12 µg/mL (≈ 0.246 µM) and an MIC of 0.12 µg/mL (≈ 0.246 µM). For the same compound, in the series on S. aureus (ATCC 29213), the MBC is 0.25 µg/mL (≈ 0.512 µM) and the MIC stood at 0.12 µg/mL (≈ 0.246 µM). Further, in the series with 50S ribosome, the Avg kd turned out to be 0.00224 s⁻¹ and binding was characterised by a dissociation constant (Kd) of 0.026 mM.
